Structures can show the parent of a compound that is named as a salt. Where two headings read alike, the source gives them in different places.
Experiments:
[1] = test system: fibrin- and LPS-induced microglia activation; assay: cells; type: cell-based, rat
primary rat microglia [2] = test system: primary rat microglia;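 on Fibrin % cell toxicity: share of dead cells sized under 150 µm2 at 10 µM in fibrin-stimulated microglia HTS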
[3] = test system: LPS-induced microglia activation; assay: Image-based assay of LPS-induced microglia activation (HTS and dose response); type: cell-based, rat
[4] = test system: fibrin-induced microglia activation; assay: Image-based assay of fibrin-induced microglia activation (HTS and dose response); type: cell-based, rat; settings: for inhibition at 10 µM: Rattus norvegicus, Microglia, read-out: Fibrin % inhibition
primary rat microglia [5] = test system: primary rat microglia; remark: listed apart in the source;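 on Fibrin % cell toxicity: share of dead cells sized under 150 µm2 at 10 µM in fibrin-stimulated microglia HTS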
[6] = quadrant by fibrin and LPS inhibition in HTS of 1907 compounds
[7] = Rattus norvegicus, Microglia, 48 h, primary microglia HTS, LPS stimulation; increased cell size (>800 μm^2) as marker of activation; read-out: LPS % inhibition
[8] = primary microglia HTS, fibrin stimulation, increased cell size (>800 μm^2) as marker of activation
[9] = classification by fibrin and LPS inhibition in HTS
[10] = Rattus norvegicus, Microglia, 48 h; read-out: LPS % inhibition
[11] = primary microglia HTS, fibrin stimulation, cell size >800 μm2 as marker of activation
[12] = Rattus norvegicus, Microglia, primary HTS, 10 μM, LPS-stimulated primary microglia; read-out: LPS % inhibition
[13] = primary HTS, 10 μM, fibrin-stimulated primary microglia
[14] = HTS of 1907 compounds, quadrant by fibrin and LPS inhibition
[15] = Rattus norvegicus, Microglia, primary microglia HTS, 10 μM, LPS-stimulated, cell size >800 μm^2 as marker of activation; read-out: LPS % inhibition
[16] = primary microglia HTS, 10 μM, fibrin-stimulated, cell size >800 μm^2 as marker of activation
[17] = Rattus norvegicus, Microglia, 48 h, primary microglia HTS, LPS stimulation, activation = cell size >800 μm2; read-out: LPS % inhibition
[18] = primary microglia HTS, fibrin stimulation, activation = cell size >800 μm2

SMILES: Cc1ncc([N+](=O)[O-])n1CCO [Metronidazole]
- Quadrant (FIG. 5b) [1, 6]: Q4
- Fibrin % cell toxicity (primary rat microglia [2]; rat): 0%
- inhibition at 10 µM [3, 7]: 15%
- inhibition at 10 µM [4, 8]: -12%
- LPS % cell toxicity (primary rat microglia [5]; rat): 1%

SMILES: CNCCCC1c2ccccc2C=Cc2ccccc21 [Protriptyline]
- Quadrant (FIG. 5b) [1]: Q4
- Fibrin % cell toxicity (primary rat microglia [2]; rat): 1%
- inhibition at 10 µM ([3]; Rattus norvegicus, Microglia, 48 h, read-out: LPS % inhibition): 15%
- inhibition at 10 µM [4]: 21%
- LPS % cell toxicity (primary rat microglia [5]; rat): 0%

SMILES: CCCCC1C(=O)N(c2ccccc2)N(c2ccccc2)C1=O [Phenylbutazone]
- Quadrant (FIG. 5b) [1, 9]: Q4
- Fibrin % cell toxicity (primary rat microglia [2]; rat): 0%
- inhibition at 10 µM [3, 10]: 5%
- inhibition at 10 µM [4, 11]: -23%
- LPS % cell toxicity (primary rat microglia [5]; rat): 0%

SMILES: COC(=O)[C@H](c1ccccc1Cl)N1CCc2sccc2C1 [Clopidogrel]
- Quadrant (FIG. 5b) [1]: Q4
- Fibrin % cell toxicity (primary rat microglia [2]; rat): 1%
- inhibition at 10 µM ([3]; Rattus norvegicus, Microglia, read-out: LPS % inhibition): 7%
- inhibition at 10 µM [4]: -24%
- LPS % cell toxicity (primary rat microglia [5]; rat): 0%

SMILES: NC(=O)[C@@H]1CCCN1C(=O)[C@H](Cc1cnc[nH]1)NC(=O)[C@@H]1CCC(=O)N1 [Protirelin]
- Quadrant (FIG. 5b) [1, 9]: Q4
- Fibrin % cell toxicity (primary rat microglia [2]): 1%
- LPS % inhibition [3]: 15%
- Fibrin % inhibition [4, 11]: 2%
- LPS % cell toxicity (primary rat microglia [5]): 1%

SMILES: O=C1CCc2cc(OCCCCc3nnnn3C3CCCCC3)ccc2N1 [Cilostazol]
- Quadrant (FIG. 5b) ([1]; primary HTS, 10 μM): Q4
- Fibrin % cell toxicity (primary rat microglia [2]; rat): 1%
- inhibition at 10 µM [3, 12]: 17%
- inhibition at 10 µM [4, 13]: 5%
- LPS % cell toxicity (primary rat microglia [5]; rat): 1%

SMILES: CC[C@H]1OC(=O)[C@H](C)[C@@H](O[C@H]2C[C@@](C)(OC)[C@@H](O)[C@H](C)O2)[C@H](C)[C@@H](O[C@@H]2O[C@H](C)C[C@H](N(C)C)[C@H]2O)[C@](C)(OC)C[C@@H](C)C(=O)[C@H](C)[C@@H](O)[C@]1(C)O [Clarithromycin]
- Quadrant (FIG. 5b) ([1]; primary HTS, 10 μM): Q4
- Fibrin % cell toxicity (primary rat microglia [2]; rat): 1%
- inhibition at 10 µM [3, 12]: 18%
- inhibition at 10 µM [4, 13]: -7%
- LPS % cell toxicity (primary rat microglia [5]; rat): 0%

SMILES: Oc1c(Cl)cc(Cl)cc1Sc1cc(Cl)cc(Cl)c1O [Bithionol]
- Quadrant (FIG. 5b) ([1]; primary HTS, 10 μM): Q4
- Fibrin % cell toxicity (primary rat microglia [2]; rat): 1%
- inhibition at 10 µM [3, 12]: 14%
- inhibition at 10 µM [4, 13]: 11%
- LPS % cell toxicity (primary rat microglia [5]; rat): 0%

SMILES: COc1cccc2c1C(=O)c1c(O)c3c(c(O)c1C2=O)C[C@@](O)(C(=O)CO)C[C@@H]3O[C@H]1C[C@H](N)[C@@H](O)[C@H](C)O1 [Epirubicin, Epirubicin Hydrochloride]
- Quadrant (FIG. 5b) [1, 6]: Q2
- Fibrin % cell toxicity (primary rat microglia [2]): 79%
- LPS % inhibition ([3]; primary microglia HTS, LPS stimulation; increased cell size (>800 μm^2) as marker of activation): 123%
- Fibrin % inhibition [4, 8]: 113%
- LPS % cell toxicity (primary rat microglia [5]): 58%

SMILES: Cc1ncc(CO)c(CO)c1O [Pyridoxine]
- Quadrant (FIG. 5b) [1, 9]: Q4
- Fibrin % cell toxicity (primary rat microglia [2]; rat): 1%
- inhibition at 10 µM [3, 10]: 21%
- inhibition at 10 µM [4, 11]: 1%
- LPS % cell toxicity (primary rat microglia [5]; rat): 0%

SMILES: Nc1ccc(S(=O)(=O)Nc2nccs2)cc1 [Sulfathiazole]
- Quadrant (FIG. 5b) [1, 14]: Q4
- Fibrin % cell toxicity (primary rat microglia [2]; rat): 0%
- inhibition at 10 µM [3, 15]: 9%
- inhibition at 10 µM [4, 16]: -17%
- LPS % cell toxicity (primary rat microglia [5]; rat): 0%

SMILES: Cl[C@H]1[C@H](Cl)[C@@H](Cl)[C@@H](Cl)[C@H](Cl)[C@H]1Cl [Lindane]
- Quadrant (FIG. 5b) [1, 6]: Q4
- Fibrin % cell toxicity (primary rat microglia [2]; rat): 0%
- inhibition at 10 µM [3, 17]: 11%
- inhibition at 10 µM [4, 18]: 42%
- LPS % cell toxicity (primary rat microglia [5]; rat): 0%

SMILES: N[C@@H](Cc1c[nH]c2ccccc12)C(=O)O [Tryptophan]
- Quadrant (FIG. 5b) [1, 14]: Q4
- Fibrin % cell toxicity (primary rat microglia [2]; rat): 1%
- inhibition at 10 µM [3, 15]: 16%
- inhibition at 10 µM [4, 16]: -6%
- LPS % cell toxicity (primary rat microglia [5]; rat): 0%

SMILES: CCn1cc(C(=O)O)c(=O)c2cc(F)c(N3CCNCC3)cc21 [Norfloxacin]
- Quadrant (FIG. 5b) [1, 6]: Q4
- Fibrin % cell toxicity (primary rat microglia [2]; rat): 1%
- inhibition at 10 µM [3, 7]: 9%
- inhibition at 10 µM [4, 8]: 0%
- LPS % cell toxicity (primary rat microglia [5]; rat): 0%

SMILES: CC1CC(OC(=O)c2ccccc2O)CC(C)(C)C1 (centres unmarked) [Homosalate]
- Quadrant (FIG. 5b) [1, 6]: Q4
- Fibrin % cell toxicity (primary rat microglia [2]; rat): 1%
- inhibition at 10 µM [3, 17]: 18%
- inhibition at 10 µM [4, 18]: -3%
- LPS % cell toxicity (primary rat microglia [5]; rat): 1%

SMILES: O=c1[nH]cnc2c1ncn2[C@H]1CC[C@@H](CO)O1 [Didanosine]
- Quadrant (FIG. 5b) ([1]; classification by fibrin and LPS inhibition, HTS at 10 μM): Q4
- Fibrin % cell toxicity (primary rat microglia [2]; rat): 1%
- inhibition at 10 µM ([3]; Rattus norvegicus, Microglia, primary microglia HTS, LPS stimulation, compounds at 10 μM; read-out: LPS % inhibition): -2%
- inhibition at 10 µM ([4]; primary microglia HTS, fibrin stimulation, compounds at 10 μM): -8%
- LPS % cell toxicity (primary rat microglia [5]; rat): 0%
